Tests used:
[1] = for surface tension liquid-gas: Ring tensiometer; for mass density / viscosity / speed of sound: 101 kPa, Liquid; for speed of sound: Sing-around technique in a fixed-path interferometer
[2] = xn = mol fraction of the nth substance listed; details: 293.15 K; for surface tension liquid-gas: Ring tensiometer; for speed of sound / mass density / viscosity: 101 kPa, Liquid; for speed of sound: Sing-around technique in a fixed-path interferometer

C1CCNCC1 [piperidine]
[1]
Details | mass density [kg/m3] | speed of sound [m/s] | surface tension liquid-gas [mN/m] | viscosity [mPa·s]
293.15 K | 859.87 | 1389.4 | 30.27 | 0.8207
298.15 K | – | – | 29.56 | –

C1CCNCC1 [piperidine] + C1CCNC1
[2], x1 = 1
Details | mass density [kg/m3] | speed of sound [m/s] | surface tension liquid-gas [mN/m] | viscosity [mPa·s]
– | 859.87 | 1389.4 | 30.27 | 0.8207

C1CCNC1 [pyrrolidine]
[1]
Details | mass density [kg/m3] | speed of sound [m/s] | surface tension liquid-gas [mN/m] | viscosity [mPa·s]
293.15 K | 863.81 | 1384.4 | 30.11 | 1.551
298.15 K | – | – | 29.75 | –

C1CCNC1 [pyrrolidine] + C1CCNCC1
[2]
Details | mass density [kg/m3] | speed of sound [m/s] | surface tension liquid-gas [mN/m] | viscosity [mPa·s]
x2 = 0 | 863.81 | 1384.4 | 30.11 | 1.551
x2 = 0.1043 | 863.61 | 1385.4 | 30.36 | 1.457
x2 = 0.2304 | 863.4 | 1386.3 | 30.61 | 1.364
x2 = 0.496 | 862.79 | 1388.2 | 30.56 | 1.201
x2 = 0.6423 | 862.19 | 1390.1 | 30.51 | 1.038
x2 = 0.7053 | 861.89 | 1390.8 | 30.47 | 0.9752
x2 = 0.8273 | 861.6 | 1391.5 | 30.42 | 0.9124

Source: the NIST ThermoML archive (doi:10.1021/je700290j)
